In ChEMBL document CHEMBL1201862, “PubChem BioAssay data set” (2004):
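Method: 48-hour compound exposure of cells in 96-well plates, five concentrations, linear interpolation of endpoints. Here, GI50 denotes the concentration required for 50% inhibition of growth.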 Calls of active or inactive are those of the source. Cut-off read from the data, not from the text of the source: active = GI50 up to about 1.1 µM and inactive = higher.

Experiments:
Assay in all cases: growth of human tumour cells (NCI), 48 h
[1] = system: 786-0
[2] = system: A498
[3] = system: A549
[4] = system: ACHN
[5] = system: BT-549
[6] = system: CAKI-1
[7] = system: CCRF-CEM
[8] = system: COLO 205
[9] = system: DU-145
[10] = system: EKVX
[11] = system: HCC 2998
[12] = system: HCT-116
[13] = system: HCT-15
[14] = system: HOP-62
[15] = system: HOP-92
[16] = system: IGROV-1
[17] = system: K562
[18] = system: KM12
[19] = system: LOX IMVI
[20] = system: M14
[21] = system: MCF7
[22] = system: MDA-MB-231
[23] = system: MDA-MB-435
[24] = system: MDA-N
[25] = system: MOLT-4
[26] = system: NCI-H226
[27] = system: NCI-H23
[28] = system: NCI-H460
[29] = system: NCI/ADR-RES
[30] = system: OVCAR-3
[31] = system: OVCAR-4
[32] = system: OVCAR-5
[33] = system: OVCAR-8
[34] = system: PC-3
[35] = system: RPMI-8226
[36] = system: RXF 393
[37] = system: SF-295
[38] = system: SF-539
[39] = system: SK-MEL-28
[40] = system: SK-MEL-2
[41] = system: SK-MEL-5
[42] = system: SN12C
[43] = system: SNB-19
[44] = system: SNB-75
[45] = system: SR
[46] = system: SW-620
[47] = system: T47D
[48] = system: U-251
[49] = system: UACC-257
[50] = system: UACC-62
[51] = system: UO-31

CSC12c3cc(C)n(-c4ccc([N+](=O)[O-])cc4)c3CC(C)(C)CN1C(=O)C2Oc1ccccc1 (stereo unspecified)
GI50 [1]: > 100 µM (inactive) | GI50 [2]: 10.6 µM (inactive) | GI50 [3]: 46.1 µM (inactive) | GI50 [4]: > 100 µM (inactive) | GI50 [5]: > 100 µM (inactive) | GI50 [6]: 18.5 µM (inactive) | GI50 [7]: > 100 µM (inactive) | GI50 [8]: > 100 µM (inactive) | GI50 [9]: > 100 µM (inactive) | GI50 [10]: 36 µM (inactive) | GI50 [11]: 35.5 µM (inactive) | GI50 [12]: 54.2 µM (inactive) | GI50 [13]: > 100 µM | GI50 [14]: > 100 µM (inactive) | GI50 [15]: 24.2 µM (inactive) | GI50 [16]: > 100 µM (inactive) | GI50 [17]: > 100 µM (inactive) | GI50 [18]: 1.73 µM (inactive) | GI50 [19]: > 100 µM (inactive) | GI50 [20]: > 100 µM (inactive) | GI50 [21]: 28.6 µM (inactive) | GI50 [22]: 96.6 µM (inactive) | GI50 [23]: 19.8 µM (inactive) | GI50 [24]: > 100 µM (inactive) | GI50 [25]: > 100 µM (inactive) | GI50 [26]: > 100 µM (inactive) | GI50 [27]: 74.1 µM (inactive) | GI50 [28]: 71.9 µM (inactive) | GI50 [29]: > 100 µM (inactive) | GI50 [30]: > 100 µM (inactive) | GI50 [31]: 4.72 µM (inactive) | GI50 [32]: > 100 µM (inactive) | GI50 [33]: > 100 µM (inactive) | GI50 [34]: > 100 µM (inactive) | GI50 [35]: 31.9 µM (inactive) | GI50 [36]: > 100 µM (inactive) | GI50 [37]: > 100 µM (inactive) | GI50 [38]: > 100 µM (inactive) | GI50 [39]: > 100 µM (inactive) | GI50 [40]: > 100 µM (inactive) | GI50 [41]: > 100 µM (inactive) | GI50 [42]: > 100 µM (inactive) | GI50 [43]: 80.9 µM (inactive) | GI50 [44]: 10.6 µM (inactive) | GI50 [45]: > 100 µM (inactive) | GI50 [46]: > 100 µM (inactive) | GI50 [47]: 32.7 µM (inactive) | GI50 [48]: > 100 µM (inactive) | GI50 [49]: 70 µM (inactive) | GI50 [50]: 22.2 µM (inactive) | GI50 [51]: > 100 µM (inactive)
